Assay results as given in patent US20060040871A1, “Bacterial transforming agent” (priority 2003, published 2006).
Where two headings read alike, the source gives them in different places. One block for each compound: values may come before it.

Tests used:
MRSA [1] = test: Antimicrobial plus BTA against recent clinical MRSA isolates (Table 7); format: cell-based, Staphylococcus aureus
From the text: The four clinical isolates were isolated from patients during the first three months of 2003. […] An intermediate MRSA has been included, as methicillin-resistance has been achieved by means other than production of PBP2a.

[2] = test system: MRSA with intermediate resistance to glycopeptides; test: MIC of vancomycin or teicoplanin for MRSA with intermediate resistance to glycopeptides grown with GBE or NAGly (Table 4); format: cell-based, Staphylococcus aureus; details: NAGly 0.001M; for MIC: Staphylococcus aureus, read-out: MIC of teicoplanin
VRE = test: Antimicrobial plus BTA against VRE (Table 7); format: cell-based, enterococci
MRSA [3] = test: MIC of methicillin for MRSA isolates grown with glycine or GBE (Table 1); format: cell-based, Staphylococcus aureus; details: 0.0 (Control); for MIC: Staphylococcus aureus
S. aureus = test: MIC of methicillin for already sensitive S. aureus with GBE, with or without 1% human plasma (Table 6); format: cell-based, Staphylococcus aureus; details: Staphylococcus aureus, no plasma (Control 1)
From the text: As previously mentioned, a common cause of auto-infection is due to S. aureus carried on the anterior nares. […] The transforming agents of the present invention may also be used in combination with a suitable antimicrobial to eliminate nasal carriage of MSSA prior to cardiac surgery or other invasive procedures carrying a high risk of auto-infection.

MRSA [4] = test: MIC of ceftazidime or cefuroxime for MRSA grown with or without GBE (Table 2); format: cell-based, Staphylococcus aureus; details: Control; for MIC: Staphylococcus aureus
From the text: Importantly, the usefulness of the agents of the present invention is not limited to increasing bacterial sensitivity to methicillin.

MIC of vancomycin ([2]; L266 (first line), EMRSA-17 (VISA)): 4 µg/mL
MIC of vancomycin ([2]; L266 (second line), EMRSA-17 (VISA)): 2 µg/mL
MIC of teicoplanin ([2]; L266, EMRSA-16 (TISA)): 4 µg/mL
MIC of vancomycin ([2]; NCTC 12493): 0.25 µg/mL
MIC ([2]; MRSA / NCTC 12493, NCTC 12493): 0.15 µg/mL
MIC ([2]; MRSA, L265, EMRSA-16 (TISA)): 4 µg/mL
SMILES: CC(=O)NCC(=O)O [NAGly, N-acetylglycine]

Cephalexin (antimicrobial plus BTA; quantity not named, MIC implied) (MRSA [1]; I-MRSA, cephalexin alone): 32 µg/mL
SMILES: CC1=C(C(=O)O)N2C(=O)[C@@H](NC(=O)[C@H](N)c3ccccc3)[C@H]2SC1 [Cephalexin, cephalexin]

MIC of methicillin (MRSA [3]; CD40 (EMRSA-1)): >256 µg/mL
MIC of methicillin (MRSA [3]; DS09 (EMRSA-1)): >256 µg/mL
MIC of methicillin (MRSA [3]; E15-97 (EMRSA-15)): >256 µg/mL
MIC of methicillin (MRSA [3]; E16-96 (EMRSA-16)): >256 µg/mL
MIC of methicillin (MRSA [3]; JF1-32 (EMRSA-1)): >256 µg/mL
MIC of methicillin (MRSA [3]; L265): >256 µg/mL
MIC of methicillin (MRSA [3]; L267): >256 µg/mL
MIC of methicillin (MRSA [3]; L268): >256 µg/mL
MIC of methicillin (MRSA [3]; L269): >256 µg/mL
MIC of methicillin (MRSA [3]; L270): >256 µg/mL
MIC of methicillin (MRSA [3]; L271): >256 µg/mL
MIC of methicillin (MRSA [3]; L272): >256 µg/mL
MIC of methicillin (MRSA [3]; L273): >256 µg/mL
MIC of methicillin (MRSA [3]; L274): >256 µg/mL
MIC of methicillin (MRSA [3]; L275): >256 µg/mL
MIC of methicillin (MRSA [3]; L276): >256 µg/mL
MIC of methicillin (MRSA [3]; L277): >256 µg/mL
MIC of methicillin (MRSA [3]; L278): >256 µg/mL
MIC of methicillin (MRSA [3]; L279): >256 µg/mL
MIC of methicillin (MRSA [3]; L280): >256 µg/mL
MIC of methicillin (MRSA [3]; L281): >256 µg/mL
MIC of methicillin (MRSA [3]; L282): >256 µg/mL
MIC of methicillin (MRSA [3]; L283): >256 µg/mL
MIC of methicillin (MRSA [3]; L284): >256 µg/mL
MIC of methicillin (MRSA [3]; L285): >256 µg/mL
MIC of methicillin (MRSA [3]; L286): >256 µg/mL
MIC of methicillin (MRSA [3]; L287): >256 µg/mL
MIC of methicillin (MRSA [3]; L288): >256 µg/mL
MIC of methicillin (MRSA [3]; L289): >256 µg/mL
MIC of methicillin (MRSA [3]; L290): >256 µg/mL
MIC of methicillin (MRSA [3]; L291): >256 µg/mL
MIC of methicillin (MRSA [3]; L292): >256 µg/mL
MIC of methicillin (MRSA [3]; L293): >256 µg/mL
MIC of methicillin (MRSA [3]; L294): >256 µg/mL
MIC of methicillin (MRSA [3]; MC01 (EMRSA-1)): >256 µg/mL
MIC of methicillin (MRSA [3]; PS3-32 (EMRSA-1)): >256 µg/mL
MIC of methicillin (MRSA [3]; SN31 (EMRSA-1)): >256 µg/mL
MIC of methicillin (MRSA [3]; ST11 (EMRSA-1)): >256 µg/mL
MIC of methicillin (MRSA [3]; SW2-32 (EMRSA-1)): >256 µg/mL
MIC (MRSA [3]; MRSA / NCTC 12493, NCTC 12493): > 256 µg/mL
MIC (MRSA [3]; MRSA, L266): > 256 µg/mL
MIC (S. aureus; 5518 (EMRSA-1)): > 256 µg/mL
MIC (S. aureus; LHS77): < 0.25 µg/mL
MIC (S. aureus; LHS78): 0.25 µg/mL
MIC (S. aureus; LHS79): 0.5 µg/mL
MIC (S. aureus; LHS80): 0.25 µg/mL
MIC (S. aureus; LHS81): < 0.25 µg/mL
MIC (S. aureus; LHS82): 0.5 µg/mL
MIC (S. aureus; LHS83): 0.25 µg/mL
MIC (S. aureus; LHS84): 0.25 µg/mL
MIC (S. aureus; LHS85): 0.25 µg/mL
MIC (S. aureus; LHS86): 0.25 µg/mL
MIC (S. aureus; LHS87): 0.5 µg/mL
MIC (S. aureus; LHS88): 0.25 µg/mL
MIC (S. aureus; LHS89): 0.25 µg/mL
MIC (S. aureus; LHS90): < 0.25 µg/mL
MIC (S. aureus; LHS91): < 0.25 µg/mL
MIC (S. aureus; LHS92): 0.5 µg/mL
MIC (S. aureus; LHS93): 0.25 µg/mL
MIC (S. aureus; LHS94): 0.25 µg/mL
SMILES: COc1cccc(OC)c1C(=O)N[C@@H]1C(=O)N2[C@@H]1SC(C)(C)[C@@H]2C(=O)O [methicillin]

MIC of ceftazidime (MRSA [4]; CD40 (EMRSA-1)): >256 µg/mL
MIC of ceftazidime (MRSA [4]; E15-97 (EMRSA-15)): >256 µg/mL
MIC of ceftazidime (MRSA [4]; E16-96 (EMRSA-16)): >256 µg/mL
MIC of ceftazidime (MRSA [4]; JF1-32 (EMRSA-1)): >256 µg/mL
MIC of ceftazidime (MRSA [4]; MC01 (EMRSA-1)): >256 µg/mL
MIC of ceftazidime (MRSA [4]; PS3-32 (EMRSA-1)): >256 µg/mL
MIC of ceftazidime (MRSA [4]; SN31 (EMRSA-1)): >256 µg/mL
MIC of ceftazidime (MRSA [4]; ST11 (EMRSA-1)): >256 µg/mL
MIC of ceftazidime (MRSA [4]; SW2-32 (EMRSA-1)): >256 µg/mL
MIC (MRSA [4]; MRSA / NCTC 12493, NCTC 12493, read-out: MIC of ceftazidime): > 256 µg/mL
MIC (MRSA [4]; MRSA, DS09 (EMRSA-1), read-out: MIC of ceftazidime): > 256 µg/mL
SMILES: CC(C)(O/N=C(\C(=O)N[C@@H]1C(=O)N2C(C(=O)[O-])=C(C[n+]3ccccc3)CS[C@H]12)c1csc(N)n1)C(=O)O [Ceftazidime, ceftazidime]

MIC of cefuroxime (MRSA [4]; CD40 (EMRSA-1)): >256 µg/mL
MIC of cefuroxime (MRSA [4]; E15-97 (EMRSA-15)): >256 µg/mL
MIC of cefuroxime (MRSA [4]; E16-96 (EMRSA-16)): >256 µg/mL
MIC of cefuroxime (MRSA [4]; JF1-32 (EMRSA-1)): >256 µg/mL
MIC of cefuroxime (MRSA [4]; MC01 (EMRSA-1)): >256 µg/mL
MIC of cefuroxime (MRSA [4]; PS3-32 (EMRSA-1)): >256 µg/mL
MIC of cefuroxime (MRSA [4]; SN31 (EMRSA-1)): >256 µg/mL
MIC of cefuroxime (MRSA [4]; ST11 (EMRSA-1)): >256 µg/mL
MIC of cefuroxime (MRSA [4]; SW2-32 (EMRSA-1)): >256 µg/mL
MIC (MRSA [4]; MRSA / NCTC 12493, NCTC 12493, read-out: MIC of cefuroxime): > 256 µg/mL
MIC (MRSA [4]; MRSA, DS09 (EMRSA-1), read-out: MIC of cefuroxime): > 256 µg/mL
SMILES: CO/N=C(\C(=O)N[C@@H]1C(=O)N2C(C(=O)O)=C(COC(N)=O)CS[C@H]12)c1ccco1 [Cefuroxime, cefuroxime]

Continued, compound first:

SMILES: Cc1onc(-c2ccccc2)c1C(=O)N[C@@H]1C(=O)N2[C@@H]1SC(C)(C)[C@@H]2C(=O)O [Oxacillin, oxacillin]
Oxacillin (antimicrobial plus BTA; quantity not named, MIC implied) (MRSA [1]; EMRSA-16, oxacillin alone): 256 µg/mL
Oxacillin (antimicrobial plus BTA; quantity not named, MIC implied) (MRSA [1]; EMRSA-17, oxacillin alone): 256 µg/mL
Oxacillin (antimicrobial plus BTA; quantity not named, MIC implied) (MRSA [1]; I-MRSA, oxacillin alone): 32 µg/mL

SMILES: C#CCC(N)C(=O)O.C#CCC(N)C(=O)O (stereo not shown) [PPG, Propargylglycine (2-Amino-4-pentynoic acid)]
Oxacillin (antimicrobial plus BTA; quantity not named, MIC implied) (MRSA [1]; EMRSA-16, +BTA 0.001%): 4 µg/mL
Cephalexin (antimicrobial plus BTA; quantity not named, MIC implied) (MRSA [1]; EMRSA-16, +BTA 0.01%): 12 µg/mL
Oxacillin (antimicrobial plus BTA; quantity not named, MIC implied) (MRSA [1]; EMRSA-16, +BTA 0.01%): 1.5 µg/mL
Vancomycin (antimicrobial plus BTA; quantity not named, MIC implied) (MRSA [1]; EMRSA-16, +BTA 0.01%): 0.25 µg/mL
Oxacillin (antimicrobial plus BTA; quantity not named, MIC implied) (MRSA [1]; EMRSA-17, +BTA 0.001%): 8 µg/mL
Cephalexin (antimicrobial plus BTA; quantity not named, MIC implied) (MRSA [1]; EMRSA-17, +BTA 0.01%): 6 µg/mL
Oxacillin (antimicrobial plus BTA; quantity not named, MIC implied) (MRSA [1]; EMRSA-17, +BTA 0.01%): 2 µg/mL
Vancomycin (antimicrobial plus BTA; quantity not named, MIC implied) (MRSA [1]; EMRSA-17, +BTA 0.01%): 0.25 µg/mL
Oxacillin (antimicrobial plus BTA; quantity not named, MIC implied) (MRSA [1]; I-MRSA, +BTA 0.001%): 2 µg/mL
Cephalexin (antimicrobial plus BTA; quantity not named, MIC implied) (MRSA [1]; I-MRSA, +BTA 0.01%): 0.125 µg/mL
Oxacillin (antimicrobial plus BTA; quantity not named, MIC implied) (MRSA [1]; I-MRSA, +BTA 0.01%): 0.125 µg/mL
Vancomycin (antimicrobial plus BTA; quantity not named, MIC implied) (MRSA [1]; I-MRSA, +BTA 0.01%): < 0.25 µg/mL
Vancomycin (antimicrobial plus BTA; quantity not named, MIC implied) (VRE; +BTA 0.01%): 64 µg/mL

SMILES: O=C(O)CNC(=O)c1ccccc1 [HA, Hippuric acid (N-Benzoylglycine)]
Oxacillin (antimicrobial plus BTA; quantity not named, MIC implied) (MRSA [1]; EMRSA-16, +BTA 0.01%): 6 µg/mL
Cephalexin (antimicrobial plus BTA; quantity not named, MIC implied) (MRSA [1]; EMRSA-16, +BTA 0.1%): 6 µg/mL
Oxacillin (antimicrobial plus BTA; quantity not named, MIC implied) (MRSA [1]; EMRSA-16, +BTA 0.1%): 4 µg/mL
Vancomycin (antimicrobial plus BTA; quantity not named, MIC implied) (MRSA [1]; EMRSA-16, +BTA 0.1%): 0.25 µg/mL
Oxacillin (antimicrobial plus BTA; quantity not named, MIC implied) (MRSA [1]; EMRSA-17, +BTA 0.01%): 8 µg/mL
Cephalexin (antimicrobial plus BTA; quantity not named, MIC implied) (MRSA [1]; EMRSA-17, +BTA 0.1%): 8 µg/mL
Oxacillin (antimicrobial plus BTA; quantity not named, MIC implied) (MRSA [1]; EMRSA-17, +BTA 0.1%): 4 µg/mL
Vancomycin (antimicrobial plus BTA; quantity not named, MIC implied) (MRSA [1]; EMRSA-17, +BTA 0.1%): 0.25 µg/mL
Oxacillin (antimicrobial plus BTA; quantity not named, MIC implied) (MRSA [1]; I-MRSA, +BTA 0.01%): 4 µg/mL
Cephalexin (antimicrobial plus BTA; quantity not named, MIC implied) (MRSA [1]; I-MRSA, +BTA 0.1%): 2 µg/mL
Oxacillin (antimicrobial plus BTA; quantity not named, MIC implied) (MRSA [1]; I-MRSA, +BTA 0.1%): 2 µg/mL
Vancomycin (antimicrobial plus BTA; quantity not named, MIC implied) (MRSA [1]; I-MRSA, +BTA 0.1%): < 0.25 µg/mL
Vancomycin (antimicrobial plus BTA; quantity not named, MIC implied) (VRE; +BTA 0.1%): 64 µg/mL
